# From PubChem BioAssay AID1259408 (Genetic Toxicology Data Bank (GENE-TOX), 2018)
# Calls of active or inactive are those of the source. No rule for the calls is given here.
# Test system: GENE-TOX genotoxicity assays, various organisms and cells
# Experiment: GENE-TOX mutagenicity studies
# Conditions: for call: Assay Type: In vivo carcinogenicity studies
# [1] = Species/Cell Type: Drosophila melanogaster, Assay Type: Sex-linked recessive lethal gene mutation, Assay Code: SRLT, Evaluation Type: Evaluation A (Pre-1980)
# [2] = Species/Cell Type: Nonhuman, Assay Code: CCGT, Evaluation Type: Evaluation A (Pre-1980)
# [3] = Species/Cell Type: Nonhuman, Assay Type: Sister-chromatid exchange (SCE) in vivo, Assay Code: SC3T, Evaluation Type: Evaluation B (Post-1980)
# [4] = Species/Cell Type: Salmonella typhimurium (one or more of the five standard strains: TA98, TA100, TA1535, TA1537, and TA1538), Assay Type: Histidine reverse gene mutation, Ames assay, Assay Code: SAL+*, Activation: With metabolic activation, Evaluation Type: Evaluation A (Pre-1980)
# [5] = Species/Cell Type: Nonhuman, Assay Type: Sister-chromatid exchange (SCE) in vitro, Assay Code: SC2+, Evaluation Type: Evaluation B (Post-1980)
# [6] = Species/Cell Type: Human diploid fibroblasts, Assay Type: Unscheduled DNA synthesis (UDS) in vitro, DNA effects, Assay Code: UDH+, Evaluation Type: Evaluation A (Pre-1980)
# [7] = Species/Cell Type: Salmonella typhimurium (one or more of the five standard strains: TA98, TA100, TA1535, TA1537, and TA1538), Assay Type: Histidine reverse gene mutation, Ames assay, Assay Code: SAL+, Evaluation Type: Evaluation A (Pre-1980)
# [8] = Species/Cell Type: Nonhuman, Assay Code: CCG+, Evaluation Type: Evaluation A (Pre-1980)
# [9] = Species/Cell Type: Nonhuman, Assay Type: Sister-chromatid exchange (SCE) in vitro, Assay Code: SC2+D, Dose Response: With dose response, Evaluation Type: Evaluation B (Post-1980)
# [10] = Species/Cell Type: Drosophila melanogaster, Assay Type: Sex-linked recessive lethal gene mutation, Assay Code: SRL+, Evaluation Type: Evaluation A (Pre-1980)
# [11] = Species/Cell Type: Neurospora crassa, Assay Type: Aneuploidy, chromosome aberrations, Assay Code: NEN-, Evaluation Type: Evaluation A (Pre-1980)
# [12] = Species/Cell Type: Aspergillus nidulans, Assay Type: Aneuploidy, chromosome aberrations, Assay Code: ASN+, Evaluation Type: Evaluation A (Pre-1980)
# [13] = Species/Cell Type: Human lymphocytes, Assay Type: Sister-chromatid exchange (SCE) in vivo, Assay Code: SCY+, Evaluation Type: Evaluation B (Post-1980)
# [14] = Species/Cell Type: Mammalian polychromatic erythrocytes, Assay Type: Micronucleus test, chromosome aberrations, Assay Code: MNT+, Evaluation Type: Evaluation B (Post-1980)
# [15] = Species/Cell Type: Human lymphocytes, Assay Type: Sister-chromatid exchange (SCE) in vitro, Assay Code: SCL+D, Dose Response: With dose response, Evaluation Type: Evaluation B (Post-1980)
# [16] = Species/Cell Type: Human, Assay Type: Sister-chromatid exchange (SCE) in vitro, Assay Code: SC1+D, Dose Response: With dose response, Evaluation Type: Evaluation B (Post-1980)
# [17] = Species/Cell Type: Mammalian polychromatic erythrocytes, Assay Type: Micronucleus test, chromosome aberrations, Assay Code: MNTT, Evaluation Type: Evaluation B (Post-1980)
# [18] = Species/Cell Type: Bacillus subtilis (H17 vs M45), Assay Type: Rec-assay, spot test, DNA effects (bacterial DNA repair), Assay Code: REW-, Evaluation Type: Evaluation A (Pre-1980)
smiles,measurement,setting,value
CCN(CC)c1ccc2c(-c3ccccc3C(=O)O)c3ccc(=[N+](CC)CC)cc-3oc2c1,mutagenic call,"Species/Cell Type: Bacillus subtilis (H17 vs M45T), Assay Type: Rec-assay, spot test, DNA effects (bacterial DNA repair), Assay Code: REXT, Evaluation Type: Evaluation A (Pre-1980)",no conclusion
same,mutagenic call,[1],no conclusion
same,call,[2],no conclusion
same,mutagenic call,[3],no conclusion
same,mutagenic call,"Species/Cell Type: Saccharomyces cerevisiae, Assay Type: Mitotic recombination or gene conversion, Assay Code: YEC-, Evaluation Type: Evaluation A (Pre-1980)",inactive; negative
same,mutagenic call,[4],active; positive
O=C1c2ccccc2C(=O)c2c(NCCNCCO)ccc(O)c21,mutagenic call,[5],active; positive
CC1=CC(=C(c2ccc(N)c(S(=O)(=O)O)c2)c2ccc(N)c(S(=O)(=O)O)c2)C=C(S(=O)(=O)O)C1=N,mutagenic call,"Species/Cell Type: Bacillus subtilis (H17 vs M45), Assay Type: Rec-assay, spot test, DNA effects (bacterial DNA repair), Assay Code: REWT, Evaluation Type: Evaluation A (Pre-1980)",no conclusion
CCCCCCCCCCCCCC(=O)N(OC(C)=O)c1ccc2c(c1)Cc1ccccc1-2,mutagenic call,[6],active; positive
same,mutagenic call,[7],active; positive
CC(=O)Nc1ccc(-c2ccc(NC(C)=O)cc2)cc1,call,[8],active; positive
O[C@@H]1C=Cc2c(ccc3cc4c(ccc5ccccc54)cc23)[C@H]1O,call,"Species/Cell Type: Nonhuman, Assay Code: CCG+L, Evaluation Type: Evaluation A (Pre-1980)",active; positive
same,mutagenic call,[9],active; positive
same,mutagenic call,[4],active; positive
O=P1(N2CC2)NC2CCCC3CCCC(N1)C32 (configuration not stated),mutagenic call,[10],active; positive
COc1ccc(N)c2c1C(=O)c1ccccc1C2=O,mutagenic call,[7],active; positive
CCCCOc1ccc(CC(=O)NN)cc1CN(CC)CC,mutagenic call,"Species/Cell Type: Saccharomyces cerevisiae, Assay Type: Reverse gene mutation, Assay Code: YERT, Evaluation Type: Evaluation A (Pre-1980)",no conclusion
CC(C)O,mutagenic call,[11],inactive; negative
same,mutagenic call,"Species/Cell Type: Syrian hamster embryo (SA7/SHE) cells, Assay Type: Cell transformation, viral enhanced, Assay Code: CT7-, Evaluation Type: Evaluation A (Pre-1980)",inactive; negative
COc1cc(Cl)c(OC)cc1Cl,mutagenic call,[12],active; positive
same,mutagenic call,"Species/Cell Type: Aspergillus nidulans, Assay Type: Mitotic recombination, Assay Code: ASG+, Evaluation Type: Evaluation A (Pre-1980)",active; positive
CCc1ccc(O)cc1,mutagenic call,"Species/Cell Type: Human lymphocytes, Assay Type: Sister-chromatid exchange (SCE) in vitro, Assay Code: SCLT, Evaluation Type: Evaluation B (Post-1980)",no conclusion
same,mutagenic call,"Species/Cell Type: Human, Assay Type: Sister-chromatid exchange (SCE) in vitro, Assay Code: SC1T, Evaluation Type: Evaluation B (Post-1980)",no conclusion
CCCCCc1cc(O)c2c(c1)OC(C)(C)c1ccc(C)cc1-2,mutagenic call,"Species/Cell Type: Fischer rat embryo (RLV/1706) cells, Assay Type: Cell transformation, viral enhanced, Assay Code: CTR-, Evaluation Type: Evaluation A (Pre-1980)",inactive; negative
same,mutagenic call,[13],active; positive
same,mutagenic call,[14],active; positive
same,mutagenic call,"Species/Cell Type: Mouse, Sex: Male, Assay Type: Sperm morphology, Assay Code: SPI+, Evaluation Type: Evaluation A (Pre-1980)",active; positive
COCC(C)OS(C)(=O)=O (configuration not stated),mutagenic call,"Species/Cell Type: Hordeum vulgare (barley), Assay Type: Chromosome aberrations, Assay Code: HOC+D, Dose Response: With dose response, Evaluation Type: Evaluation A (Pre-1980)",active; positive
CCCOC1=C(N2CC2)C(=O)C(OCCC)=C(N2CC2)C1=O,mutagenic call,[10],active; positive
same,mutagenic call,[15],active; positive
same,mutagenic call,[16],active; positive
c1ccc2ncccc2c1,mutagenic call,[9],active; positive
same,mutagenic call,"Species/Cell Type: Nonhuman, Assay Type: Sister-chromatid exchange (SCE) in vitro, Assay Code: SC2-, Evaluation Type: Evaluation A (Pre-1980)",inactive; negative
same,mutagenic call,[4],active; positive
N#CCC(=O)N/N=C/c1c[n+]([O-])c2ccccc2[n+]1[O-],mutagenic call,[14],active; positive
O=Cc1ccco1,mutagenic call,[15],active; positive
same,mutagenic call,[16],active; positive
same,mutagenic call,[7],active; positive
CS(=O)(=O)OCCCNCCCOS(C)(=O)=O,mutagenic call,[7],active; positive
C/C=C1/C[C@@H](C)[C@@](C)(O)C(=O)OCC2=CCN3CC[C@@H](OC1=O)[C@@H]23,mutagenic call,[10],active; positive
CCC(=O)N(C)N=O,mutagenic call,"Species/Cell Type: Saccharomyces cerevisiae, Assay Type: Reverse gene mutation, Assay Code: YER+, Evaluation Type: Evaluation A (Pre-1980)",active; positive
Nc1nnc(/C(=C/c2ccc([N+](=O)[O-])o2)c2ccco2)o1,mutagenic call,[6],active; positive
S=C=S,mutagenic call,"Species/Cell Type: Human, Sex: Male, Assay Type: Sperm morphology, Assay Code: SPH+, Evaluation Type: Evaluation A (Pre-1980)",active; positive
CN1CCC=C(C(=O)O)C1,mutagenic call,[17],no conclusion
NN,mutagenic call,[1],no conclusion
same,call,[8],active; positive
same,mutagenic call,[9],active; positive
same,mutagenic call,"Species/Cell Type: Saccharomyces cerevisiae, Assay Type: Forward gene mutation, Assay Code: YEF+, Evaluation Type: Evaluation A (Pre-1980)",active; positive
same,mutagenic call,"Species/Cell Type: Vicia faba, Assay Type: Chromosome aberrations, Assay Code: VIC+, Evaluation Type: Evaluation A (Pre-1980)",active; positive
CCN(CCCl)CCCNc1ccnc2ccc(OC)cc12,mutagenic call,"Species/Cell Type: Neurospora crassa, Assay Type: Reverse gene mutation, Assay Code: NER+, Evaluation Type: Evaluation A (Pre-1980)",active; positive
CN1C(C(=O)Nc2ccccn2)=C(O)c2ccccc2S1(=O)=O,mutagenic call,[13],active; positive
OC(O)C(Cl)(Cl)Cl,mutagenic call,[12],active; positive
same,mutagenic call,"Species/Cell Type: Aspergillus nidulans, Assay Type: Mitotic recombination, Assay Code: ASG-, Evaluation Type: Evaluation A (Pre-1980)",inactive; negative
same,mutagenic call,"Species/Cell Type: Mammalian polychromatic erythrocytes, Assay Type: Micronucleus test, chromosome aberrations, Assay Code: MNTT, Evaluation Type: Evaluation A (Pre-1980)",no conclusion
same,mutagenic call,"Species/Cell Type: Mouse, Sex: Male, Assay Type: Sperm morphology, Assay Code: SPI-, Evaluation Type: Evaluation A (Pre-1980)",inactive; negative
same,mutagenic call,[11],inactive; negative
same,call,[2],no conclusion
same,mutagenic call,[7],active; positive
CN[C@H]1Cc2c[nH]c3c(Cl)ccc(c23)[C@]12C=C(C)C(=O)O2,mutagenic call,[18],inactive; negative
COc1ccc(Cl)cc1C(=O)NCCc1ccc(S(=O)(=O)NC(=O)NC2CCCCC2)cc1,mutagenic call,[17],no conclusion
same,mutagenic call,[3],no conclusion
CCNC(N)=O,mutagenic call,"Species/Cell Type: Salmonella typhimurium, Assay Type: Forward and reverse gene mutation, host-mediated assay, Assay Code: HMA+, Evaluation Type: Evaluation A (Pre-1980)",active; positive
C,mutagenic call,[5],active; positive
NCCC[C@H](N)C(=O)O,mutagenic call,"Species/Cell Type: Human, Sex: Male, Assay Type: Sperm morphology, Assay Code: SPH-, Evaluation Type: Evaluation A (Pre-1980)",inactive; negative
NC(=O)OCCO,mutagenic call,"Species/Cell Type: Nonhuman, Assay Type: Sister-chromatid exchange (SCE) in vitro, Assay Code: SC2+*, Activation: With metabolic activation, Evaluation Type: Evaluation B (Post-1980)",active; positive
same,mutagenic call,[3],no conclusion
Cc1ccnc2ccccc12,mutagenic call,[4],active; positive
Cc1cc(N=Nc2ccc(C)c(N=Nc3cc(C)c(N)cc3N)c2)c(N)cc1N,mutagenic call,[18],inactive; negative
Oc1ccc2ccccc2c1N=Nc1cc[c]([Hg+])cc1,mutagenic call,"Species/Cell Type: Salmonella typhimurium (one or more of the five standard strains: TA98, TA100, TA1535, TA1537, and TA1538), Assay Type: Histidine reverse gene mutation, Ames assay, Assay Code: SALT, Evaluation Type: Evaluation A (Pre-1980)",no conclusion
N/C=N/O,mutagenic call,"Species/Cell Type: Escherichia coli polA (W3119 vs P3478), Assay Type: Rec-assay, DNA effects (bacterial DNA repair), Assay Code: RE1+, Evaluation Type: Evaluation A (Pre-1980)",active; positive
[2H]O[2H],mutagenic call,"Species/Cell Type: Drosophila melanogaster, Sex: Male, Assay Type: Heritable translocation test, chromosome aberrations, Assay Code: DHTT, Evaluation Type: Evaluation A (Pre-1980)",no conclusion
Cc1ccc2ccc3c(C)c4ccccc4c(C)c3c2c1,mutagenic call,"Species/Cell Type: Chinese hamster lung (V79) cells, Assay Type: Forward gene mutation at the HPRT or ouabain locus, Assay Code: V79-*, Activation: With metabolic activation, Evaluation Type: Evaluation A (Pre-1980)",inactive; negative
